Structures can show the parent of a compound that is named as a salt.
Legend:
[1] = biological target: HCV NS3 protease genotype 3a (3A-1) (Hepatitis C virus genotype 3a, UniProt Q81258); experiment: HCV NS3 protease time-resolved fluorescence (TRF) assay, genotype 3a; assay type: biochemical; settings: Ki 3a
Outline: (§1)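 Steps: compound plus NS3/NS4A enzyme for 10 minutes; add peptide substrate to 25 nM; let cleavage proceed 6 hours at room temperature; read product fluorescence (340 nm excitation, 615 nm emission, delayed 400 μs). Enzyme levels gave signal/background 5-20.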

[2] = biological target: T1, HCV genotype 1b (BK) NS3 modified enzyme with a R155K mutation (Hepatitis C virus genotype 1b, UniProt P26663, R1181K); experiment: HCV NS3 protease time-resolved fluorescence (TRF) assay, genotype 1b R155K; assay type: biochemical; settings: Ki 1b R155K
T1 construct: HCV genotype 1b (BK) NS3 modified enzyme
Outline: as §1

[3] = genotype 1b (BK) NS3 R155K, single value

| SMILES | Ki [1] [nM] | Ki [2, 3] [nM] | Ki ([2]; first of two values printed in the cell (not explained)) [nM] | Ki ([2]; second of two values printed in the cell (not explained)) [nM] |
| --- | --- | --- | --- | --- |
| C=C[C@@H]1C[C@]1(NC(=O)[C@@H]1C[C@@H]2CN1C(=O)[C@H](C(C)(C)C)NC(=O)O[C@@H]1C[C@H]1CCCCCc1c(nc3cc(C(C)C)ccc3c1OCCCN1CCOCC1)O2)C(=O)NS(=O)(=O)C1(C)CC1 [Example 161, (1aR,5S,8S,10R,22aR)-5-tert-butyl-N-[(1R,2S)-2-ethenyl-1-{[(1-methylcyclopropyl)sulfonyl]carbamoyl}cyclopropyl]-17-[3-(morpholin-4-yl)propoxy]-3,6-dioxo-14-(propan-2-yl)-1,1a,3,4,5,6,9,10,18,19,20,21,22,22a-tetradecahydro-8H-7,10-methanocyclopropan[18,19] [1,10,3,6]dioxadiazacyclononadecino [11,12-b]quinoline-8-carboxamide] | 2.8 | 0.31 |  |  |
| C=C[C@@H]1C[C@]1(NC(=O)[C@@H]1C[C@@H]2CN1C(=O)[C@H](C(C)(C)C)NC(=O)O[C@@H]1C[C@H]1CCCCCc1c(nc3ccccc3c1OCCCN1CCNC(C(F)(F)F)C1)O2)C(=O)NS(=O)(=O)C1(C)CC1 (stereo partly drawn) [Example 205, (1aR,5S,8S,10R,22aR)-5-tert-butyl-N-[(1R,2S)-2-ethenyl-1-{[(1-methylcyclopropyl)sulfonyl]carbamoyl}cylcopropyl]-3,6-dioxo-17-{3-[3-(trifluoromethyl)piperazin-1-yl]propoxy}-1,1a,3,4,5,6,9,10,18, 19,20,21,22,22a-tetradecahydro-8H-7,10-methanocyclopropa[18,19][1,10,3,6] dioxadiazacyclononadecino[11,12-b] quinoline-8-carboxamide] | 1.9 | 0.19 |  |  |
| C=C[C@@H]1C[C@]1(NC(=O)[C@@H]1C[C@@H]2CN1C(=O)[C@H](C1CCCC1)NC(=O)O[C@@H]1CCC[C@H]1CC/C=C/Cc1c(nc3ccccc3c1OCCC(C)(C)O)O2)C(=O)NS(=O)(=O)C1(C)CC1 [Example 49, (3aR,7S,10S,12R,21E,24aS)-7-cyclopentyl-N-[(1R,2S)-2-ethenyl-1-{[(1-methylcyclopropyl)sulfonyl]carbamoyl}cyclopropyl]-19-(3-hydroxy-3-methylbutoxy)-5,8-dioxo-1,2,3,3a,5,6,7,8,11,12,20,23,24,24a-tetradecahydro-10H-9,12-methanocyclo penta[18,19][1,10,3,6]dioxadiazacyclo nonadecino[11,12-b]quinoline-10-carboxamide] | 1.5 | 0.16 |  |  |
| CC1(S(=O)(=O)NC(=O)[C@@]23C[C@H]2/C=C\CCCCC[C@@H]2NC(=O)O[C@@H]4C[C@H]4CCCCCc4c(nc5ccccc5c4OCCN4CCCC4)O[C@@H]4C[C@@H](C(=O)N3)N(C4)C2=O)CC1 [Example 306, (1aR,5S,11Z,12aS,13aR,16S,19R,31aR)—N-[(1-methylcyclopropyl)sulfonyl]-3,15,33-trioxo-26-[2-(pyrrolidin-1-yl)ethoxy]-1,1a,3,4,5,6,7,8,9,10,12a,13,15,16,18,19,27,28,29,30,31,31a-docosahydro-5,17:16,19-dimethanodicyclopropa[12,13:28,29][1,20,3,14,17]dioxatriazacyclononacosino[21,22-b]quinoline-13a(14H)-carboxamide] | 0.72 | 0.083 |  |  |
| C=C[C@@H]1C[C@]1(NC(=O)[C@@H]1C[C@@H]2CN1C(=O)[C@H](C1CCCC1)NC(=O)O[C@@H]1CCC[C@H]1CCCCCc1c(nc3ccccc3c1OC)O2)C(=O)NS(=O)(=O)C1CC1 [Example 26, (3aR,7S,10S,12R,24aR)-7-cyclo pentyl-N-{(1R,2S)-1-[(cyclopropylsulfonyl)carbamoyl]-2-ethenylcyclopropyl}-19-methoxy-5,8-dioxo-1,2,3,3a,5,6,7,8,11,12,20,21,22,23,24,24a-hexadecahydro-10H-9,12-methanocyclopenta [18,19][1,10,3,6]dioxadiazacyclononadecino [11,12-b]quinoline-10-carboxamide] | 13 | 0.33 |  |  |
| C=C[C@@H]1C[C@]1(NC(=O)[C@@H]1C[C@@H]2CN1C(=O)[C@H](C(C)(C)C)NC(=O)O[C@@H]1C[C@H]1CCCCCc1c(nc3ccccc3c1OCCCN1CC3(COC3)C1)O2)C(=O)NS(=O)(=O)C1(C)CC1 [Example 194] | 0.38 | 0.032 |  |  |
| C=C[C@@H]1C[C@]1(NC(=O)[C@@H]1C[C@@H]2CN1C(=O)[C@H](C(C)(C)C)NC(=O)O[C@@H]1C[C@H]1CCCCCc1c(nc3ccccc3c1OCC1CCCN(CC)C1)O2)C(=O)NS(=O)(=O)C1(C)CC1 (stereo partly drawn) [Example 139, (1aR,5S,8S,10R,22aR)-5-tert-butyl-N-[(1R,2S)-2-ethenyl-1-{[(1-methylcyclopropyl)sulfonyl]carbamoyl}cyclopropyl]-17-[(1-ethylpiperidin-3-yl)methoxy]-3,6-dioxo-1,1a,3,4,5,6,9,10,18,19, 20,21,22,22a-tetradeca hydro-8H-7,10-methanocyclopropa[18,19] [1,10,3,6]dioxadiazacyclo nonadecino[11,12-b]quinoline-8-carboxamide] | 0.38 | 0.1 |  |  |
| C=C[C@@H]1C[C@]1(NC(=O)[C@@H]1C[C@@H]2CN1C(=O)[C@H](C1CCCCC1)NC(=O)O[C@@H]1C[C@H]1CCCCCc1c(nc3ccccc3c1OCCCSc1nccs1)O2)C(=O)NS(=O)(=O)C1(C)CC1 [Example 172] | 14 | 1.1 |  |  |
| C=C[C@@H]1C[C@]1(NC(=O)[C@@H]1C[C@@H]2CN1C(=O)[C@H](C(C)(C)C)NC(=O)O[C@@H]1C[C@H]1CCCCCc1c(nc3ccccc3c1OC1C3COCC1CN(CC1CC1)C3)O2)C(=O)NS(=O)(=O)C1(C)CC1 (stereo partly drawn) [Example 256, 9-{[(1aR,5S,8S,10R,22aR)-5-tert-butyl-8-{[(1R,2S)-2-ethenyl-1-{[(1-methylcyclopropyl)sulfonyl]carbamoyl}cyclopropyl]carbamoyl}-3,6-dioxo-1,1a,3,4,5,6,9,10,18,19,20,21,22,22a-tetradecahydro-8H-7,10-methanocyclopropa[18,19][1,10,3,6]dioxadiazacyclononadecino[11,12-b]quinolin-17-yl]oxy}-7-(cyclopropylmethyl)-3-oxa-7-azoniabicyclo[3.3.1]nonane formate] | 5.45 |  | 0.021 | 0.122 |
| C=C[C@@H]1C[C@]1(NC(=O)[C@@H]1C[C@@H]2CN1C(=O)[C@H](C1CCCC1)NC(=O)O[C@@H]1CCC[C@H]1CC/C=C/Cc1c(nc3ccccc3c1O)O2)C(=O)NS(=O)(=O)C1CC1 [Example 17, (3aR,7S,10S,12R,21E,24aS)-7-cyclopentyl-N-{(1R,2S)-1-[(cyclopropylsulfonyl)carbamoyl]-2-ethenylcyclopropyl}-19-hydroxy-5,8-dioxo-1,2,3,3a,5,6,7,8,11,12,20,23,24,24a-tetradecahydro-10H-9,12-methanocyclopenta[18,19][1,10,3,6]dioxadiazacyclononadecino[11,12-b]quinoline-10-carboxamide] | 0.45 | < 0.016 |  |  |
| C=C[C@@H]1C[C@]1(NC(=O)[C@@H]1C[C@@H]2CN1C(=O)[C@H](C(C)(C)C)NC(=O)O[C@@H]1C[C@H]1CCCCCc1c(nc3ccccc3c1OCCCN1CC(F)(F)C1)O2)C(=O)NS(=O)(=O)C1(C)CC1 [Example 206, (1aR,5S,8S,10R,22aR)-5-tert-butyl-17-[3-(3,3-difluoroazetidin-1-yl)propoxy]-N-[(1R,2S)-2-ethenyl-1-{[(1-methylcyclopropyl)sulfonyl]carbamoyl}cyclopropyl]-3,6-dioxo-1,1a,3,4,5,7,9,10,18,19,20,21,22,22a-tetradecahydro-8H-7,10-methanocyclopropa[18,19][1,10,3,6] dioxadiazacyclononadecino[11,12-b] quinoline-8-carboxamide] | 2.6 | 0.2 |  |  |
